By EC50 is commonly meant the concentration giving half of the maximal effect. The low end stands for higher potency in that assay, the high end for lower potency in that assay. Usually IC50 stands for the concentration that gives 50% inhibition. Low values mean higher potency, high ones lower potency.

Consider 14 molecules from US11161837B2, “Benzofuran derivatives for the treatment of hepatitis C” (BRISTOL-MYERS SQUIBB COMPANY, priority 2016, dated 2021).

Assay [1] deals with genotype 1b (Con-1) HCV replicon in Huh-7 cells. The assay is described as follows: HCV replicon luciferase assay. The format is cell-based. The note with it: 1b replicon, Huh-7, Renilla luciferase, 3 days incubation. How it is done:
The cell lines used to evaluate compounds consist of a human hepatocyte derived cell line (Huh-7) that constitutively expresses a genotype 1b (Con-1) HCV replicon or a genotype 1b (Con-1) HCV replicon with an asparagine replacing the cysteine at amino acid 316, or a genotype 2a (JFH-1) replicon, containing a Renilla luciferase reporter gene. These cells were maintained in Dulbecco's modified Eagle medium (DMEM) containing 10% FBS, 100 U/mL penicillin/streptomycin and 1.0 mg/mL G418.
HCV Replicon Luciferase Assay.
To evaluate compound efficacy, titrated compounds were transferred to sterile 384-well tissue culture treated plates, and the plates were seeded with HCV replicon cells (50 μL at a density of 2.4×10^3 cells/well) in DMEM containing 4% FBS (final DMSO concentration at 0.5%). After 3 days incubation at 37° C., cells were analyzed for Renilla Luciferase activity using the EnduRen substrate (Promega cat # E6485) according to the manufacturer's directions. Briefly, the EnduRen substrate was diluted in DMEM and then added to the plates to a final concentration of 7.5 μM. The plates were incubated for at least 1 h at 37° C. then read on a Viewlux Imager (PerkinElmer) using a luminescence program. The 50% effective concentration (EC50) was calculated using the four-parameter logistic formula noted above.

In assay [2] the target is T1, NS5B proteins of HCV genotype 1b (Con1) (Hepatitis C virus genotype 1b, UniProt Q9WMX2).
T1 construct: Each untagged protein was expressed with an 18 amino acid C-terminal truncation to enhance the solubility; made in house; host or cells: E. coli BL21(DE3), pET21a
The assay can be described thus: HCV NS5B RdRp enzyme assay. The class given is biochemical. As to conditions: 1b enzyme. As to the method: HCVNS5B RdRp Cloning, Expression, and Purification.
The cDNA encoding NS5B proteins of HCV genotype 1b (Con1), a genotype 1b variant with amino acid 316 mutated from cysteine to asparagine, and genotype 2a (JFH-1), were cloned into the pET21a expression vector. Each untagged protein was expressed with an 18 amino acid C-terminal truncation to enhance the solubility. The E. coli competent cell line BL21(DE3) was used for expression of the protein. Cultures were grown at 37° C. for ˜4 hours until the cultures reached an optical density of 2.0 at 600 nm. The cultures were cooled to 20° C. and induced with 1 mM IPTG. Fresh ampicillin was added to a final concentration of 50 μg/mL and the cells were grown overnight at 20° C.
Cell pellets (3 L) were lysed for purification to yield 15-24 mgs of purified NS5B. The lysis buffer consisted of 20 mM Tris-HCl, pH 7.4, 500 mM NaCl, 0.5% triton X-100, 1 mM DTT, 1 mM EDTA, 20% glycerol, 0.5 mg/mL lysozyme, 10 mM MgCl2, 15 ug/mL deoxyribonuclease I, and Complete TM protease inhibitor tablets (Roche). After addition of the lysis buffer, frozen cell pellets were resuspended using a tissue homogenizer. To reduce the viscosity of the sample, aliquots of the lysate were sonicated on ice using a microtip attached to a Branson sonicator. The sonicated lysate was centrifuged at 100,000×g for 30 minutes at 4° C. and filtered through a 0.2 μm filter unit (Corning).
The protein was purified using two sequential chromatography steps: Heparin sepharose CL-6B and polyU sepharose 4B. The chromatography buffers were identical to the lysis buffer but contained no lysozyme, deoxyribonuclease I, MgCl2 or protease inhibitor and the NaCl concentration of the buffer was adjusted according to the requirements for charging the protein onto the column. Each column was eluted with a NaCl gradient which varied in length from 5-50 column volumes depending on the column type. After the final chromatography step, the resulting purity of the enzyme is >90% based on SDS-PAGE analysis. The enzyme was aliquoted and stored at −80° C.
HCVNS5B RdRp Enzyme Assay.
An on-bead solid phase homogeneous assay was used in a 384-well format to assess NS5B inhibitors (WangY-K, Rigat K, Roberts S, and Gao M (2006) Anal Biochem, 359: 106-111). The biotinylated oligo dT12 primer was captured on streptavidin-coupled imaging beads (GE, RPNQ0261) by mixing primer and beads in 1× buffer and incubating at room temperature for three hours. Unbound primer was removed after centrifugation. The primer-bound beads were resuspended in 3× reaction mix (20 mM Hepes buffer, pH 7.5, dT primer coupled beads, poly A template, ^3H-UTP, and RNAse inhibitor (Promega N2515)). Compounds were serially diluted 1:3 in DMSO and aliquoted into assay plates. Equal volumes (10 μL) of water, 3× reaction mix, and enzyme in 3× assay buffer (60 mM Hepes buffer, pH 7.5, 7.5 mM MgCl2, 7.5 mM KCl, 3 mM DTT, 0.03 mg/mL BSA, 6% glycerol) were added to the diluted compound on the assay plate. Final concentration of components in 384-well assay: 0.36 nM template, 15 nM primer, 0.29 μM ^3H-UTP (0.3 μCi), 1.6 U/μL RNAse inhibitor, 7 nM NS5B enzyme, 0.01 mg/mL BSA, 1 mM DTT, and 0.33 μg/μL beads, 20 mM Hepes buffer, pH 7.5, 2.5 mM MgCl2, 2.5 mM KCl, and 0.1% DMSO.
Reactions were allowed to proceed from 4 to 24 hours at 30° C. For 24 hour reactions, enzyme and inhibitors were pre-incubated for 24 hours before adding template and primer. Reactions were terminated by the addition of 50 mM EDTA (10 μL). After incubating for at least 15 minutes, plates were read on an Amersham LEADseeker multimodality imaging system.
IC50 values for compounds were determined using ten different [I]. IC50 values were calculated from the inhibition using the four-parameter logistic formula y=A+((B−A)/(1+((C/x)^D))), where A and B denote minimal and maximal % inhibition, respectively, C is the IC50, D is hill slope and x represents compound concentration.

T1 sequence (Q9WMX2 2420-2992): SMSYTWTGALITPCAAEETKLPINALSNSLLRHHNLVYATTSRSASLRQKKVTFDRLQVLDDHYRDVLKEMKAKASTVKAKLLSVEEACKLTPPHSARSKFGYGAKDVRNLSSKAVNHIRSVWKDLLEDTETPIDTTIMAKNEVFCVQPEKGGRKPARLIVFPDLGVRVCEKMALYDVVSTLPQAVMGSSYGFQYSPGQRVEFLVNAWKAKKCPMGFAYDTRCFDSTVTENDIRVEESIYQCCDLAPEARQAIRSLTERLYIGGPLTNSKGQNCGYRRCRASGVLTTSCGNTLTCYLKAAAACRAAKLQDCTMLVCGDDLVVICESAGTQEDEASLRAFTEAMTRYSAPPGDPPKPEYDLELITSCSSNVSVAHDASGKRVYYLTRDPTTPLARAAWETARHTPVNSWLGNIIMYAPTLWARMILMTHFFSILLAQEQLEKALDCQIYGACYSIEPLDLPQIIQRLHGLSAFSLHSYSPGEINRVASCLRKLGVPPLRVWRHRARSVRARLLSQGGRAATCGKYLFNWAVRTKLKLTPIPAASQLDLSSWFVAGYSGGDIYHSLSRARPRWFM

Turning to `CNC(=O)c1c(-c2ccc(F)cc2)oc2cc(CCC(F)(F)F)c(-c3ccc(OC)c(C(=O)NC4(c5ncccn5)CC(OC(F)(F)F)C4)c3)cc12` (single isomer, unassigned) [Example 47a, 2-(4-Fluorophenyl)-5-(4-methoxy-3-((1-(pyrimidin-2-yl)-3-(trifluoromethoxy)cyclobutyl)carbamoyl)phenyl)-N-methyl-6-(3,3,3-trifluoropropyl)benzofuran-3-carboxamide], the EC50 in assay [1] (Hepatitis C virus, Huh-7, 72 h) turned out to be 0.01 µM. Also, the IC50 in assay [2] was found to be 0.02 µM. As for `CNC(=O)c1c(-c2ccc(F)cc2)oc2ccc(-c3cc(C(=O)NC4(c5ncccn5)CC(O)C4)ccc3C)c(F)c12` (single isomer, unassigned) [Example 5b, 4-Fluoro-2-(4-fluorophenyl)-5-(5-((3-hydroxy-1-(pyrimidin-2-yl)cyclobutyl)carbamoyl)-2-methylphenyl)-N-methylbenzofuran-3-carboxamide], the EC50 in assay [1] came out at 1.19 µM. The molecule also showed an IC50 in assay [2] of 0.23 µM.

As for `CNC(=O)c1c(-c2ccc(F)cc2)oc2cc(CCC(F)(F)F)c(-c3cccc(C(=O)NC4(c5ncccn5)CC(OC(F)F)C4)c3)cc12` (single isomer, unassigned) [Example 29a], the response in assay [1] was half-maximal at 0.00407 µM (EC50). Besides, in assay [2], the IC50 was 0.00614 µM.

In assay [1] (Hepatitis C virus, Huh-7, 72 h), `CCN(c1cc2oc(-c3ccc(F)cc3)c(C(=O)NC)c2cc1-c1cccc(C(=O)NC2(c3ncccn3)CC(F)C2)c1)S(C)(=O)=O` (stereo not shown) [Example 25, 6-(N-ethylmethylsulfonamido)-5-(3-((3-fluoro-1-(pyrimidin-2-yl)cyclobutyl)carbamoyl)phenyl)-2-(4-fluorophenyl)-N-methylbenzofuran-3-carboxamide] yielded an EC50 of 0.00529 µM. This molecule had an IC50 in assay [2] of 0.00137 µM. `CNC(=O)c1c(-c2ccc(F)cc2)oc2ccc(-c3cc(C(=O)NC4(c5ncccn5)CC(O)C4)c(OC)cc3C)c(F)c12` (single isomer, unassigned) [Example 12a, 4-Fluoro-2-(4-fluorophenyl)-5-(5-((3-hydroxy-1-(pyrimidin-2-yl)cyclobutyl)carbamoyl)-4-methoxy-2-methylphenyl)-N-methylbenzofuran-3-carboxamide] registered an EC50 in assay [1] of 0.43 µM. In addition, in assay [2], half-maximal inhibition (IC50) required 0.76 µM. `CCCc1cc2oc(-c3ccc(F)cc3)c(C(=O)NC)c2cc1-c1cccc(C(=O)NC2(C)CC(OC(F)F)C2)c1` (single isomer, unassigned) [Example 55a, 5-(3-((3-(Difluoromethoxy)-1-methylcyclobutyl)carbamoyl)phenyl)-2-(4-fluorophenyl)-N-methyl-6-propylbenzofuran-3-carboxamide] had an EC50 in assay [1] (Hepatitis C virus, Huh-7, 72 h) of 0.03 µM.

In turn, `CNC(=O)c1c(-c2ccc(F)cc2)oc2cc(CCC(F)(F)F)c(-c3cc(C(=O)NC4(C)CC(OC(F)F)C4)c(OC)cc3C)cc12` (single isomer, unassigned) [Example 53b, 5-(5-((3-(Difluoromethoxy)-1-methylcyclobutyl)carbamoyl)-4-methoxy-2-methylphenyl)-2-(4-fluorophenyl)-N-methyl-6-(3,3,3-trifluoropropyl)benzofuran-3-carboxamide] yielded an EC50 in assay [1] of 0.06 µM.

For the molecule `CCCc1cc2oc(-c3ccc(F)cc3)c(C(=O)NC)c2cc1-c1cccc(C(=O)NC2(c3ncccn3)CC(OC(F)F)C2)c1` (stereo not shown) [Example 33, 5-(3-((3-(Difluoromethoxy)-1-(pyrimidin-2-yl)cyclobutyl)carbamoyl)phenyl)-2-(4-fluorophenyl)-N-methyl-6-propylbenzofuran-3-carboxamide], a half-maximal response in assay [1] (Hepatitis C virus, Huh-7, 72 h) (EC50) required 0.00455 µM. This counts as single-digit nanomolar. Same read-out and setting: the result for `CCN(c1cc2oc(-c3ccc(F)cc3)c(C(=O)NC)c2cc1-c1cccc(C(=O)NC2(c3ncccn3)CC(OC(F)F)C2)c1)S(C)(=O)=O` (stereo not shown) [Example 24, 5-(3-((3-(difluoromethoxy)-1-(pyrimidin-2-yl)cyclobutyl)carbamoyl)phenyl)-6-(N-ethylmethylsulfonamido)-2-(4-fluorophenyl)-N-methylbenzofuran-3-carboxamide] reads 0.0022 µM. In assay [1], `CNC(=O)c1c(-c2ccc(F)cc2)oc2cc(CCC(F)(F)F)c(-c3cc(C(=O)NC4(c5ncccn5)CC(OC(F)(F)F)C4)c(OC)cc3C)cc12` (single isomer, unassigned) [Example 46b, 2-(4-Fluorophenyl)-5-(4-methoxy-2-methyl-5-((1-(pyrimidin-2-yl)-3-(trifluoromethoxy)cyclobutyl)carbamoyl)phenyl)-N-methyl-6-(3,3,3-trifluoropropyl)benzofuran-3-carboxamide] gave an EC50 of 0.08 µM. This lies in the double-digit nanomolar range. Turning to `CCCc1cc2oc(-c3ccc(F)cc3)c(C(=O)NC)c2cc1-c1cc(C(=O)NC2(C)CC(OC(F)F)C2)c(OC)cc1C` (single isomer, unassigned) [Example 57b, 5-(5-((3-(Difluoromethoxy)-1-methylcyclobutyl)carbamoyl)-4-methoxy-2-methylphenyl)-2-(4-fluorophenyl)-N-methyl-6-propylbenzofuran-3-carboxamide], the midpoint of the response in assay [1], the EC50, lay at 0.07 µM. This EC50 and that of the molecule before are within 1.5-fold of each other. On to `CCN(c1cc2oc(-c3ccc(F)cc3)c(C(=O)NC)c2c(F)c1-c1cccc(C(=O)NC2(c3ncccn3)CC(F)C2)c1)S(C)(=O)=O` (stereo not shown) [Example 22, 6-(N-ethylmethylsulfonamido)-4-fluoro-5-(3-((3-fluoro-1-(pyrimidin-2-yl)cyclobutyl)carbamoyl)phenyl)-2-(4-fluorophenyl)-N-methylbenzofuran-3-carboxamide], for which it took 0.00494 µM to reach a half-maximal effect in assay [1] (Hepatitis C virus, Huh-7, 72 h) (EC50). The same measure, in the same setting: the result for `CCCc1cc2oc(-c3ccc(F)cc3)c(C(=O)NC)c2cc1-c1ccc(F)c(C(=O)NC2(C)CC(OC(F)F)C2)c1` (single isomer, unassigned) [Example 61a, 5-(3-((3-(Difluoromethoxy)-1-methylcyclobutyl)carbamoyl)-4-fluorophenyl)-2-(4-fluorophenyl)-N-methyl-6-propylbenzofuran-3-carboxamide] reads 0.02 µM; that for `CCN(c1cc2oc(-c3ccc(F)cc3)c(C(=O)NC)c2c(F)c1-c1ccc(OC)c(C(=O)NC2(c3ncccn3)CC(F)C2)c1)S(C)(=O)=O` (stereo not shown) [Example 26, 6-(N-ethylmethylsulfonamido)-4-fluoro-5-(3-((3-fluoro-1-(pyrimidin-2-yl)cyclobutyl)carbamoyl)-4-methoxyphenyl)-2-(4-fluorophenyl)-N-methylbenzofuran-3-carboxamide], 0.00225 µM.
